Measurements reported in paper PMC8264504, “Identification of Koumine as a Translocator Protein 18 kDa Positive Allosteric Modulator for the Treatment of Inflammatory and Neuropathic Pain” (Frontiers in Pharmacology, 2021).
Where two headings read alike, the source gives them in different places. Values belong to the compound of their own block, whether it stands above or below them.

Experiments:
[1] = molecular target: T1, mouse TSPO recombinant protein (TSPO proteoliposomes) (Mus musculus, UniProt P50637); test: SPR single-cycle kinetics on TSPO proteoliposomes; format: binding
T1 construct: His tag; made in house; host or cells: Escherichia coli BL21(DE3) pLysS, pET15b vector
Experimental: (§1) Cells of the BL21(DE3) pLysS Escherichia coli strain were transformed with the pET15b vector, from which the expression of mouse TSPO recombinant protein was induced by 1 mM isopropyl-1-thiol-β-D-galactopyranoside as previously described ([Robert and Lacapère, 2010]; [Senicourt et al., 2017]). Cells were harvested and resuspended in lysis buffer (150 mM NaCl and 50 mM HEPES-Na, pH 7.8) with the addition of 1 mg/ml lysozyme and sonicated thoroughly. The lysate was centrifuged at 15,000 g at 4°C for 20 min to pellet the insoluble inclusion bodies. The final pellet of inclusion bodies was solubilized in binding buffer (150 mM NaCl, 50 mM HEPES-Na, 1% SDS (wt/vol), pH 7.8) and was purified by the Ni-NTA gravity flow column.
Proteoliposomes composed of DMPC/DMPE (9:1) and TSPO in a 5:1 (wt/wt) ratio were prepared using a previously described method ([Ostuni et al., 2010]). Liposomes composed of DMPC/DMPE (9:1) were prepared as published previously ([Hatty et al., 2014]). A few milligrams of DMPC and DMPE were weighed into a round-bottom glass flask, and chloroform and methanol were added to dissolve them. A thin lipid film was prepared by a rotary evaporator and dried under vacuum for at least 3 h to remove all traces of chloroform and methanol. The dry lipid film was resuspended in PBS buffer (10 mM phosphate buffer, 2.7 mM KCl, 137 mM NaCl) to a concentration of 1 mg/ml, hydrated for 2 h at 45–55°C, and finally sonicated to produce small unilamellar vesicles. The suspension of small unilamellar vesicles was then kept at 45°C for use on the same day. The sizes of proteoliposomes and liposomes were determined by dynamic light scattering using Nicomp 380 Z3000 instrument (Parficle Sizing Systems, America).
SPR analyses were performed at 25°C with a Biacore T200 instrument. For proteoliposomes and liposomes (reference), they were immobilized on a series S L1 sensor chips. It is possible that the repeated regeneration steps in the multicycle kinetics process impairs the activity of TSPO proteoliposomes, thus we were unable to use multicycle kinetics to effectively determine the affinity of TSPO and its ligands. Therefore, the single cycle kinetics, which assumes to be as robust as the classical multicycle kinetics for measuring affinity, was used. Kinetic rate constants for the various analytes were determined using single cycle protocols where five serial 2-fold dilutions of the analytes were injected for 180 s without intervening regeneration, followed by a 300 s dissociation phase after the last injection. Interactions were measured at 30 μl/min. PBS, with addition of 1% DMSO (pH 7.4), was used as running buffer. […] For mouse TSPO in a lipid-free environment, affinity was measured according to established methods with minor modifications ([Zhang et al., 2015]). […]

[2] = molecular target: T2, mouse TSPO recombinant protein (Mus musculus, UniProt P50637); test: SPR multicycle kinetics, mouse TSPO in a lipid-free environment; format: binding; settings: CM5 chip, anti-His capture, read-out: affinity to mouse TSPO
T2 construct: made in house; host or cells: Escherichia coli BL21(DE3) pLysS, pET15b vector
Experimental: as §1
SPR analyses were performed at 25°C with a Biacore T200 instrument. For proteoliposomes and liposomes (reference), they were immobilized on a series S L1 sensor chips. It is possible that the repeated regeneration steps in the multicycle kinetics process impairs the activity of TSPO proteoliposomes, thus we were unable to use multicycle kinetics to effectively determine the affinity of TSPO and its ligands. Therefore, the single cycle kinetics, which assumes to be as robust as the classical multicycle kinetics for measuring affinity, was used. Kinetic rate constants for the various analytes were determined using single cycle protocols where five serial 2-fold dilutions of the analytes were injected for 180 s without intervening regeneration, followed by a 300 s dissociation phase after the last injection. Interactions were measured at 30 μl/min. PBS, with addition of 1% DMSO (pH 7.4), was used as running buffer. Three consecutive 1 min injections with 10 μl/min of glycine HCl 3.0 at the end of each single-cycle kinetics regenerated the chip. For mouse TSPO in a lipid-free environment, affinity was measured according to established methods with minor modifications ([Zhang et al., 2015]). Briefly, HBS-EP buffer was used as the running buffer. […]

[3] = system: T98G human glioblastoma cells; test: Cell proliferation assay (BrdU ELISA); format: cell-based; settings: 48 h
Experimental: T98G cells were plated at 1 × 10^4 cells/well in 96-well plates. […] After 48 h of drug exposure, proliferation was indexed using a BrdU ELISA Kit (Roche Molecular Diagnostics) according to the manufacturer’s protocol, and absorption was measured at 370 nm (reference wavelength 492 nm).

[4] = system: T98G human glioblastoma cells; test: Cell viability assay (CellTiter Blue); format: cell-based; settings: same dosing regimen as proliferation, 48 h
Experimental: T98G cells were plated and treated as in the proliferation assays. After 48 h of drug exposure, CellTiter Blue Reagent (Promega) was added to the cells and incubated for 4 h in 5% CO2 at 37°C. Absorption was measured at 570 nm using 600 nm as a reference wavelength.

rat C6 glioma cells = test: Pregnenolone production; format: cell-based; settings: 2 h
[5] = system: postoperative pain model of rats; design: method as in Xiong et al., 2017; settings: ref Xiong et al., 2017, cited from earlier work
[6] = molecular target: T3, TSPO from rat cerebral cortex (Rattus norvegicus, UniProt P16257); test: 3H-PK11195 saturation binding; settings: 0.125–32 nM, 4°C, 2 h
T3 construct: male SD rats (240 ± 10 g) were killed by decapitation, and the cerebral cortices were dissected; from tissue; host or cells: rat (SD) cerebral cortex, crude mitochondrial/membrane pellet
T3 sequence (P16257 whole entry): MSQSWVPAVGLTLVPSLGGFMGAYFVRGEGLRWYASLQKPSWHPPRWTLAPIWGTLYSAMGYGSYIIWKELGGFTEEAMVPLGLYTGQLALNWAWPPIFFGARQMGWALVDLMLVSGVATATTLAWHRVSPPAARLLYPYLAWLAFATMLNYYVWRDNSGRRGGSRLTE
Experimental: After incubating at 4°C for 2 h, the reaction was terminated by the addition of ice-cold 50 mM Tris HCl buffer (pH 7.4) followed by vacuum filtration through Filtermat A glass microfiber filters (pretreated with 0.2% polyethylenimine) using a Brandel cell harvester. The filters were washed rapidly, and radioactivity was determined by liquid scintillation spectrometry.

[7] = molecular target: T3, TSPO from rat cerebral cortex; test: 3H-PK11195 dissociation kinetics; format: binding; settings: vehicle; dissociation induced by 10 μM PK11195, 4°C
Experimental: Briefly, male SD rats (240 ± 10 g) were killed by decapitation, and the cerebral cortices were dissected. The tissues were homogenized in 10 volumes (ml/g) of 50 mM Tris HCl buffer containing 0.32 M sucrose (pH 7.4). The homogenates were centrifuged at 1,000 g for 10 min at 4°C. The resulting pellets were discarded, and the supernatants were centrifuged at 9,000 g for 15 min. The pellets were resuspended in 10 volumes of Tris HCl buffer containing 0.32 M sucrose (pH 7.4) and centrifuged at 13,000 g for 30 min, then resuspended in 10 volumes of Tris HCl buffer and centrifuged again at 13,000 g for 30 min. The final pellets were suspended in Tris HCl buffer and used in the binding assays. Protein concentrations were measured using the BCA Protein Assay Kit (ThermoFisher Scientific) according to the manufacturer’s instructions.
Then, samples were filtered through Filtermat A glass microfiber filters (pretreated with 0.2% polyethylenimine) using a Brandel cell harvester, and the radioactivities were measured at the indicated time points.

TSPO = molecular target: TSPO; design: method as in Awad and Gavish, 1987; Verma et al., 1987; settings: radioligand binding experiment results from literatures, ref Awad and Gavish, 1987, Verma et al.; cited from earlier work

Compound: CCC(C)N(C)C(=O)c1cc2ccccc2c(-c2ccccc2Cl)n1 (stereo not drawn) [PK11195]
Kd [1]: 0.00197 ± 2e-05 µM | Kd [2]: 161 ± 6.1 µM | EC20 concentration, inhibition of cell proliferation ([3]; BrdU): ~75 µM | EC50 ([3]; Homo sapiens, T98G, read-out: EC50, inhibition of cell proliferation): 81 µM | cell viability [4]: not significantly affected | EC20 concentration, pregnenolone production (rat C6 glioma cells): ~27 µM | increase in pregnenolone production (rat C6 glioma cells; vs vehicle): approximately 50% | EC50 (rat C6 glioma cells; Rattus norvegicus, C6 glioma, read-out: EC50, pregnenolone production): 69 µM | analgesic effect ([5]; 7 μg PK11195 alone, intrathecal): can also produce a certain analgesic effect | effect on analgesic effect of intrathecal 200 μg koumine ([5]; intrathecal 0.7 μg PK11195 with 200 μg koumine): weakened the analgesic effect | analgesic effect ([5]; intrathecal injection of 0.7 μg PK11195): had no analgesic effect

Compound: CCC(C)N(C)C(=O)c1cc2ccccc2c(-c2ccccc2Cl)n1 (stereo not drawn) [^3H-PK11195, reference compound]
Bmax [6]: 143.3 ± 5.4 fmol/mg protein | dissociation rate of 3H-PK11195 [7]: 0.0419 ± 0.0016 min⁻¹

Kd ([1]; SPR single-cycle kinetics, TSPO proteoliposomes on L1 chip, 25°C, Langmuir 1:1 fit, read-out: KD): 0.0126 ± 0.00039 µM
Compound: C=CC1=C(C)c2cc3[nH]c(cc4nc(cc5[nH]c(cc1n2)c(C)c5CCC(=O)O)C(CCC(=O)O)=C4C)c(C)c3C=C [protoporphyrin IX]
Kd (TSPO): 0.0145 ± 0.0107 µM
